Data published in the supplement of paper PMC10307832.

Assays:
Assay in all cases: relative viability (nuclei count vs DMSO), 5 days (fraction); higher = more cells survive
[1] = compound: CO[C@H]1C[C@@H]2CC[C@@H](C)[C@@](O)(O2)C(=O)C(=O)N2CCCC[C@H]2C(=O)O[C@H]([C@H](C)C[C@@H]2CC[C@@H](OCCO)[C@H](OC)C2)CC(=O)[C@H](C)/C=C(\C)[C@@H](O)[C@@H](OC)C(=O)[C@H](C)C[C@H](C)/C=C/C=C/C=C/1C [Everolimus] + CC1(C)CCC(c2ccc(Cl)cc2)=C(CN2CCN(c3ccc(C(=O)NS(=O)(=O)c4ccc(N[C@H](CCN5CCOCC5)CSc5ccccc5)c(S(=O)(=O)C(F)(F)F)c4)cc3)CC2)C1 [Navitoclax] (partner 0.5 µM)
Outline: (§1)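 Relative viability divides the nuclei count in treated wells by that in vehicle wells. Lung cancer cell lines were seeded in 1536-well plates, dosed by pin tool the next day, and fixed and stained after 5 days in one step with final 0.05% Triton X-100, 1% formaldehyde and 1 ug/ml Hoechst. Dosing was a single drug or a fixed anchor-drug dose plus five library-drug doses (not always all listed) in √10 steps, and values are medians of duplicate plates imaged at 4×.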

[2] = compound: CO[C@H]1C[C@@H]2CC[C@@H](C)[C@@](O)(O2)C(=O)C(=O)N2CCCC[C@H]2C(=O)O[C@H]([C@H](C)C[C@@H]2CC[C@@H](OCCO)[C@H](OC)C2)CC(=O)[C@H](C)/C=C(\C)[C@@H](O)[C@@H](OC)C(=O)[C@H](C)C[C@H](C)/C=C/C=C/C=C/1C [Everolimus] + C[C@]1(O)C[C@@H](c2nc(-c3ccc4ccc(-c5ccccc5)nc4c3)c3c(N)nccn32)C1 [Linsitinib] (partner 1 µM)
Outline: as §1

[3] = compound: CO[C@H]1C[C@@H]2CC[C@@H](C)[C@@](O)(O2)C(=O)C(=O)N2CCCC[C@H]2C(=O)O[C@H]([C@H](C)C[C@@H]2CC[C@@H](OCCO)[C@H](OC)C2)CC(=O)[C@H](C)/C=C(\C)[C@@H](O)[C@@H](OC)C(=O)[C@H](C)C[C@H](C)/C=C/C=C/C=C/1C [Everolimus] + Nc1nc2[nH]cc(CCc3ccc(C(=O)N[C@@H](CCC(=O)O)C(=O)O)cc3)c2c(=O)[nH]1 [Pemetrexed] (partner 0.2 µM)
Outline: as §1

[4] = compound: CO[C@H]1C[C@@H]2CC[C@@H](C)[C@@](O)(O2)C(=O)C(=O)N2CCCC[C@H]2C(=O)O[C@H]([C@H](C)C[C@@H]2CC[C@@H](OCCO)[C@H](OC)C2)CC(=O)[C@H](C)/C=C(\C)[C@@H](O)[C@@H](OC)C(=O)[C@H](C)C[C@H](C)/C=C/C=C/C=C/1C [Everolimus] + O=C(CCCCCCC(=O)Nc1ccccc1)NO [Vorinostat] (partner 1 µM)
Outline: as §1

Cell Line	relative viability ([1]; first compound 0.01 µM)	relative viability ([1]; first compound 0.03162 µM)	relative viability ([1]; first compound 0.1 µM)	relative viability ([1]; first compound 0.3162 µM)	relative viability ([1]; first compound 1 µM)	relative viability ([2]; first compound 0.01 µM)	relative viability ([2]; first compound 0.03162 µM)	relative viability ([2]; first compound 0.1 µM)	relative viability ([2]; first compound 0.3162 µM)	relative viability ([2]; first compound 1 µM)	relative viability ([3]; first compound 0.01 µM)	relative viability ([3]; first compound 0.03162 µM)	relative viability ([3]; first compound 0.1 µM)	relative viability ([3]; first compound 0.3162 µM)	relative viability ([3]; first compound 1 µM)	relative viability ([4]; first compound 0.01 µM)	relative viability ([4]; first compound 0.03162 µM)	relative viability ([4]; first compound 0.1 µM)	relative viability ([4]; first compound 0.3162 µM)	relative viability ([4]; first compound 1 µM)
HOP-62	0.997	0.875	0.862	0.786	0.948	0.669	0.603	0.477	0.607	0.449	0.326	0.401	0.337	0.375	0.338	0.475	0.345	0.388	0.389	0.361
LC-2-ad	0.339	0.245	0.284	0.245	0.236	0.75	0.744	0.781	0.766	0.702	0.275	0.301	0.286	0.291	0.253	0.851	0.865	0.759	0.79	0.728
LCLC-97TM1	0.417	0.388	0.255	0.217	0.239	0.141	0.142	0.147	0.129	0.151	0.165	0.195	0.196	0.18	0.211	0.62	0.616	0.688	0.659	0.379
LK-2	0.851	0.557	0.408	0.508	0.461	0.426	0.497	0.286	0.282	0.198	0.203	0.229	0.212	0.208	0.167	0.243	0.174	0.188	0.21	0.189
LOU-NH91	0.53	0.59	0.473	0.524	0.496	0.794	0.644	0.718	0.585	0.66	0.477	0.467	0.394	0.418	0.485	0.809	0.653	0.744	0.727	0.764
LU99A	0.409	0.503	0.406	0.412	0.421	0.342	0.345	0.295	0.283	0.334	0.206	0.24	0.248	0.189	0.254	0.367	0.371	0.325	0.311	0.471
LXF-289	0.99	1.04	0.958	0.96	0.957	0.984	0.972	0.913	1.02	0.917	1.09	1.07	0.823	1.12	1.02	0.909	0.831	0.817	0.987	0.934
NCI-H23	0.556	0.424	0.44	0.544	0.557	0.288	0.3	0.244	0.251	0.271	0.55	0.398	0.607	0.535	0.472	0.373	0.31	0.432	0.369	0.35
NCI-H322M	1.21	1.05	0.905	0.902	0.79	0.87	0.695	0.683	0.739	0.645	0.597	0.598	0.554	0.597	0.618	0.77	0.601	0.712	0.654	0.713
NCI-H441	0.658	0.577	0.79	0.73	0.482	0.504	0.302	0.289	0.402	0.401	0.275	0.276	0.269	0.262	0.286	0.701	0.789	0.55	0.669	0.589
NCI-H460	0.998	1.11	0.704	1.1	0.779	0.42	0.45	0.365	0.301	0.381	0.058	0.0669	0.0635	0.0608	0.072	0.621	0.617	0.486	0.625	0.372
NCI-H520	0.537	0.454	0.421	0.535	0.445	0.533	0.441	0.532	0.343	0.372	0.349	0.318	0.324	0.255	0.325	0.455	0.373	0.439	0.394	0.387
NCI-H596	0.427	0.361	0.394	0.374	0.369	0.653	0.651	0.53	0.532	0.515	0.454	0.46	0.471	0.433	0.443	0.505	0.741	0.414	0.421	0.419
NCI-H647	0.782	0.659	0.609	0.646	0.748	0.629	0.76	0.58	0.647	0.653	0.175	0.184	0.156	0.11	0.175	0.309	0.165	0.132	0.189	0.24
NCI-H838	0.57	0.54	0.499	0.588	0.495	0.329	0.372	0.303	0.326	0.318	0.229	0.213	0.241	0.228	0.222	0.541	0.539	0.554	0.573	0.471
NCI-H1355	0.541	0.415	0.349	0.394	0.377	0.412	0.322	0.348	0.349	0.336	0.747	0.553	0.521	0.502	0.486	0.385	0.331	0.341	0.365	0.295
NCI-H1395	1.06	0.886	0.857	0.83	0.763	1	0.864	0.766	0.731	0.787	0.595	0.571	0.693	0.693	0.7	0.549	0.33	0.505	0.478	0.58
NCI-H1437	0.913	0.89	0.836	0.804	0.661	0.589	0.598	0.493	0.36	0.279	0.296	0.307	0.294	0.29	0.251	0.747	0.632	0.656	0.586	0.432
NCI-H1651	0.555	0.581	0.576	0.557	0.399	0.586	0.538	0.495	0.495	0.454	0.398	0.386	0.423	0.41	0.433	0.424	0.418	0.36	0.449	0.405
NCI-H1666	0.766	0.687	0.508	0.559	0.42	0.644	0.407	0.468	0.455	0.468	0.884	0.859	0.93	0.885	0.825	1.04	1.08	1.04	1.05	0.92
NCI-H1734	0.455	0.519	0.447	0.441	0.608	0.416	0.568	0.518	0.467	0.575	0.407	0.435	0.461	0.385	0.406	0.613	0.606	0.505	0.422	0.563
NCI-H1755	0.75	0.624	0.599	0.646	0.513	0.883	0.717	0.665	0.727	0.658	0.468	0.484	0.512	0.438	0.448	0.616	0.599	0.61	0.568	0.602
NCI-H1793	0.285	0.165	0.247	0.258	0.184	0.299	0.188	0.333	0.311	0.246	0.373	0.332	0.319	0.351	0.251	0.344	0.288	0.322	0.356	0.251
NCI-H1915	0.782	0.774	0.737	0.72	0.749	0.994	0.973	0.935	0.914	0.827	0.484	0.481	0.469	0.499	0.432	0.389	0.387	0.431	0.37	0.364
NCI-H1944	0.697	0.668	0.555	0.628	0.571	0.84	0.824	0.684	0.754	0.715	0.497	0.545	0.393	0.489	0.404	0.373	0.376	0.315	0.44	0.336
NCI-H1975	1.01	0.794	0.802	0.798	0.606	0.747	0.618	0.672	0.665	0.597	0.37	0.343	0.353	0.345	0.339	0.599	0.587	0.608	0.565	0.542
NCI-H1993	0.687	0.676	0.631	0.585	0.717	0.689	0.63	0.666	0.694	0.691	0.516	0.457	0.482	0.508	0.547	0.429	0.488	0.438	0.377	0.508
NCI-H2009	1.04	1.09	0.898	0.814	0.836	0.875	0.897	0.901	0.887	0.795	0.986	0.98	0.927	0.848	0.771	0.563	0.611	0.54	0.54	0.503
NCI-H2023	0.763	0.471	0.529	0.536	0.348	0.301	0.323	0.303	0.282	0.219	0.18	0.174	0.201	0.19	0.142	0.496	0.441	0.341	0.372	0.379
